Test results from ChEMBL document CHEMBL2384945, “Discovery of RG7112: A Small-Molecule MDM2 Inhibitor in Clinical Development” (ACS Med Chem Lett, 2013).

Key:
SW480 = assay: cells; settings: Homo sapiens, SW480, 120 h
Description: Cytotoxicity against human SW480 cells expressing p53 mutant assessed as cell viability after 5 days by MTT assay

MDA-MB-435 = assay: cells; settings: Homo sapiens, MDA-MB-435, 120 h
Description: Cytotoxicity against human MDA-MB-435 cells expressing p53 mutant assessed as cell viability after 5 days by MTT assay

RKO = assay: cells; settings: Homo sapiens, 120 h
Description: Cytotoxicity against human RKO cells expressing wild type p53 assessed as cell viability after 5 days by MTT assay

SJSA-1 [1] = assay: cells; settings: Homo sapiens, SJSA-1, 120 h
Description: Cytotoxicity against human SJSA1 cells expressing wild type p53 assessed as cell viability after 5 days by MTT assay

HCT-116 = assay: cells; settings: Homo sapiens, HCT-116, 120 h
Description: Cytotoxicity against human HCT116 cells expressing wild type p53 assessed as cell viability after 5 days by MTT assay

[2] = Apparent half life in mouse at 50 mg/kg, po; format: ADME, organism-based; set-up: dose 50 mg/kg, route oral; settings: in vivo, read-out: t1/2(app) (converted)
[3] = AUClast in mouse at 50 mg/kg, po; format: ADME, organism-based; set-up: time 0 - last, dose 50 mg/kg, route oral; settings: plasma
[4] = Cmax in mouse at 50 mg/kg, po; format: ADME, organism-based; set-up: dose 50 mg/kg, route oral; settings: in vivo
[5] = AUClast in mouse at 100 mg/kg, po; format: ADME, organism-based; set-up: time 0 - last, dose 100 mg/kg, route oral; settings: plasma
[6] = Cmax in mouse at 100 mg/kg, po; format: ADME, organism-based; set-up: dose 100 mg/kg, route oral; settings: in vivo
[7] = Apparent half life in mouse at 100 mg/kg, po; format: ADME, organism-based; set-up: dose 100 mg/kg, route oral; settings: in vivo, read-out: t1/2(app) (converted)
[8] = Antitumor activity against human MHM cells xenografted in po dosed mouse relative to nutlin-3a; format: functional
SJSA-1 [9] = assay: animal or person; settings: Mus musculus, SJSA-1, po, read-out: TGI
Description: Antitumor activity against human SJSA1 cells xenografted in nude mouse assessed as tumor growth inhibition at 50 mg/kg, po relative to control

Compound	IC50 (SW480) [µM]	IC50 (MDA-MB-435) [µM]	IC50 (RKO) [µM]	IC50 (SJSA-1 [1]) [µM]	IC50 (HCT-116) [µM]	half-life [2] [h]	AUC(0-t) [3] [ng·h/mL]	Cmax [4] [ng/mL]	AUC(0-t) [5] [ng·h/mL]	Cmax [6] [ng/mL]	half-life [7] [h]	fold change (FC) [8]	inhibition in vivo at 50 mg/kg (SJSA-1 [9]) [%]
CCOc1cc(C(C)(C)C)ccc1C1=N[C@@](C)(c2ccc(Cl)cc2)[C@@H](c2ccc(Cl)cc2)N1C(=O)N1CCN(CCCS(C)(=O)=O)CC1	> 30	> 30	> 30	12.4	14.4								
CCOc1cc(C(C)(C)C)ccc1C1=N[C@@](C)(c2ccc(Cl)cc2)[C@@](C)(c2ccc(Cl)cc2)N1C(=O)N1CCNC(=O)C1	> 30	> 30	23.7	7.6	16.4								
CCOc1cc(C(C)(C)C)ccc1C1=N[C@@](C)(c2ccc(Cl)cc2)[C@@](C)(c2ccc(Cl)cc2)N1C(=O)N1CCNCC1	2.7	4.2	0.5	0.6	1.2								
CCOc1cc(C(C)(C)C)ccc1C1=N[C@@](C)(c2ccc(Cl)cc2)[C@@](C)(c2ccc(Cl)cc2)N1C(=O)N1CCCCC1	23.1	24.9	6.8	7.3	10.7								
CCOc1cc(C(C)(C)C)ccc1C1=N[C@@](C)(c2ccc(Cl)cc2)[C@@](C)(c2ccc(Cl)cc2)N1C(=O)N1CCN(C(C)=O)CC1	17.8	14.9	0.5	0.3	0.6	2.4	64900	19600					
CCOc1cc(C(C)(C)C)ccc1C1=N[C@@](C)(c2ccc(Cl)cc2)[C@@](C)(c2ccc(Cl)cc2)N1C(=O)N1CCN(CCC(F)(F)F)CC1	5	29.3	0.4	2.5	1.3								
CCOc1cc(C(C)(C)C)ccc1C1=N[C@@](C)(c2ccc(Cl)cc2)[C@@](C)(c2ccc(Cl)cc2)N1C(=O)N1CCN(CCO)CC1	12.3	9.6	0.3	0.2	0.8								
CCOc1cc(C(C)(C)C)ccc1C1=N[C@@](C)(c2ccc(Cl)cc2)[C@@](C)(c2ccc(Cl)cc2)N1C(=O)N1CCN(CCNS(C)(=O)=O)CC1	9.1	7.3	0.3	0.2	0.9								
CCOc1cc(C(C)(C)C)ccc1C1=N[C@@](C)(c2ccc(Cl)cc2)[C@@](C)(c2ccc(Cl)cc2)N1C(=O)N1CCN(CCNC(C)=O)CC1	11	10.5	0.3	0.1	0.5	2.3	136000	12000					
CCOc1cc(C(C)(C)C)ccc1C1=N[C@@](C)(c2ccc(Cl)cc2)[C@@](C)(c2ccc(Cl)cc2)N1C(=O)N1CCN(CC(=O)N2CCCC2)CC1	14.4	9.5	0.5	0.3	0.7	4.7	8300	2300					
CCOc1cc(C(C)(C)C)ccc1C1=N[C@@](C)(c2ccc(Cl)cc2)[C@@](C)(c2ccc(Cl)cc2)N1C(=O)N1CCN(CC(=O)N2CCOCC2)CC1	14.4	17.5	0.6	0.2	0.6								
CCOc1cc(C(C)(C)C)ccc1C1=N[C@@](CC)(c2ccc(Cl)cc2)[C@@](CC)(c2ccc(Cl)cc2)N1C(=O)N1CCN(CCCS(C)(=O)=O)CC1	24.6	28.2	12.5	> 30	13.7								
COc1ccc(C2=N[C@@H](c3ccc(Cl)cc3)[C@@H](c3ccc(Cl)cc3)N2C(=O)N2CCNC(=O)C2)c(OC(C)C)c1 [NUTLIN-3]			1.5	1.5	1.5				65000	12100	2.6		
CCOc1cc(C(C)(C)C)ccc1C1=N[C@@](C)(c2ccc(Cl)cc2)[C@@](C)(c2ccc(Cl)cc2)N1C(=O)N1CCN(CCCS(C)(=O)=O)CC1 [RO-5045337]	16.6	9.9	0.4	0.3	0.5	8.8	251000	15500				4	74
